Results from US11306092B2, “Amino indole compounds useful as TLR inhibitors” (BRISTOL-MYERS SQUIBB COMPANY, priority 2017, dated 2022).

Legend:
human TLR7 = target: T1, human TLR7 (Homo sapiens, UniProt Q9NYK1); assay: TLR7 inhibition reporter assay (HEK-Blue SEAP reporter); format: cell-based; conditions: HEK-Blue cells overexpressing human TLR7; gardiquimod 7.5 μM; 22 hour incubation
T1 construct: host or cells: HEK-Blue cells
T1 sequence (Q9NYK1 27-1049): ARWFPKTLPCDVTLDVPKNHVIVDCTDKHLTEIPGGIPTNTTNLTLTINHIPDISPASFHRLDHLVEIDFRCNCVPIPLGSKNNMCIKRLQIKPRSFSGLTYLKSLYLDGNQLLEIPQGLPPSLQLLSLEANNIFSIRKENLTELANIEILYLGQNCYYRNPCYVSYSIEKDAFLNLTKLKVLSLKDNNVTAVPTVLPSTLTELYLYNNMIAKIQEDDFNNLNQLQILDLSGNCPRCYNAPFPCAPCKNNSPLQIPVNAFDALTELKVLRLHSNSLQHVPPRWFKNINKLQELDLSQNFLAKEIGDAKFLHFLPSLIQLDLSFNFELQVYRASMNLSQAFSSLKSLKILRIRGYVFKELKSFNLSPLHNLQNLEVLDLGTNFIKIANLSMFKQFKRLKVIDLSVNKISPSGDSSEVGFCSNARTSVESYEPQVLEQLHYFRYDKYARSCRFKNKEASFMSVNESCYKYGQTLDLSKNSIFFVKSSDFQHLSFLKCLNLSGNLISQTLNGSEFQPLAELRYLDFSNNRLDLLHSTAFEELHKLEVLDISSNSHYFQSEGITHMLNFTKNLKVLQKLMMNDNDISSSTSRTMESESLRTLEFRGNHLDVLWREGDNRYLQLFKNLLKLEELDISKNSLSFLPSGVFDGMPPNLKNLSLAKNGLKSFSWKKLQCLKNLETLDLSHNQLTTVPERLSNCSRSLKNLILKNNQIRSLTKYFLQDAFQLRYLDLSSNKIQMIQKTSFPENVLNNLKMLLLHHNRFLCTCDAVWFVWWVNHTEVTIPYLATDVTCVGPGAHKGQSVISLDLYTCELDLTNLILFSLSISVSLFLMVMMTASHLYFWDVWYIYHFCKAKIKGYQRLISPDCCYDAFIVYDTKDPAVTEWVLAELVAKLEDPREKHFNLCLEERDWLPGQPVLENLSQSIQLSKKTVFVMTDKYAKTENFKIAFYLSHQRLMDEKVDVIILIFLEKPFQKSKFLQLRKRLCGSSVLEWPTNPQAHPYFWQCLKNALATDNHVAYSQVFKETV
Experimental: (§1) TLR7/8/9 Inhibition Reporter Assays
(§2) HEK-Blue™-cells (Invivogen) overexpressing human TLR7, TLR8 or TLR9 receptors were used for screening inhibitors of these receptors using an inducible SEAP (secreted embryonic alkaline phosphatase) reporter gene under the control of the IFN-β minimal promoter fused to five NF-κB and AP-1-binding sites. Briefly, cells are seeded into Greiner 384 well plates (15000 cells per well for TLR7, 20,000 for TLR8 and 25,000 for TLR9) and then treated with test compounds in DMSO to yield a final dose response concentration range of 0.05 nM-50 μM. After a 30 minute compound pre-treatment at room temperature, the cells are then stimulated with a TLR7 ligand (gardiquimod at a final concentration of 7.5 μM), TLR8 ligand (R848 at a final concentration of 15.9 μM) or TLR9 ligand (ODN2006 at a final concentration of 5 nM) to activate NF-κB and AP-1 which induce the production of SEAP. After a 22 hour incubation at 37° C., 5% CO2, SEAP levels are determined with the addition of HEK-Blue™ Detection reagent (Invivogen), a cell culture medium that allows for detection of SEAP, according to manufacturer's specifications. The percent inhibition is determined as the % reduction in the HEK-Blue signal present in wells treated with agonist plus DMSO alone compared to wells treated with a known inhibitor.

human TLR9 = target: T2, human TLR9 (Homo sapiens, UniProt Q9NR96); assay: TLR9 inhibition reporter assay (HEK-Blue SEAP reporter); format: cell-based; conditions: HEK-Blue cells overexpressing human TLR9; ODN2006 5 nM; 22 hour incubation
T2 construct: host or cells: HEK-Blue cells
T2 sequence (Q9NR96 26-1032): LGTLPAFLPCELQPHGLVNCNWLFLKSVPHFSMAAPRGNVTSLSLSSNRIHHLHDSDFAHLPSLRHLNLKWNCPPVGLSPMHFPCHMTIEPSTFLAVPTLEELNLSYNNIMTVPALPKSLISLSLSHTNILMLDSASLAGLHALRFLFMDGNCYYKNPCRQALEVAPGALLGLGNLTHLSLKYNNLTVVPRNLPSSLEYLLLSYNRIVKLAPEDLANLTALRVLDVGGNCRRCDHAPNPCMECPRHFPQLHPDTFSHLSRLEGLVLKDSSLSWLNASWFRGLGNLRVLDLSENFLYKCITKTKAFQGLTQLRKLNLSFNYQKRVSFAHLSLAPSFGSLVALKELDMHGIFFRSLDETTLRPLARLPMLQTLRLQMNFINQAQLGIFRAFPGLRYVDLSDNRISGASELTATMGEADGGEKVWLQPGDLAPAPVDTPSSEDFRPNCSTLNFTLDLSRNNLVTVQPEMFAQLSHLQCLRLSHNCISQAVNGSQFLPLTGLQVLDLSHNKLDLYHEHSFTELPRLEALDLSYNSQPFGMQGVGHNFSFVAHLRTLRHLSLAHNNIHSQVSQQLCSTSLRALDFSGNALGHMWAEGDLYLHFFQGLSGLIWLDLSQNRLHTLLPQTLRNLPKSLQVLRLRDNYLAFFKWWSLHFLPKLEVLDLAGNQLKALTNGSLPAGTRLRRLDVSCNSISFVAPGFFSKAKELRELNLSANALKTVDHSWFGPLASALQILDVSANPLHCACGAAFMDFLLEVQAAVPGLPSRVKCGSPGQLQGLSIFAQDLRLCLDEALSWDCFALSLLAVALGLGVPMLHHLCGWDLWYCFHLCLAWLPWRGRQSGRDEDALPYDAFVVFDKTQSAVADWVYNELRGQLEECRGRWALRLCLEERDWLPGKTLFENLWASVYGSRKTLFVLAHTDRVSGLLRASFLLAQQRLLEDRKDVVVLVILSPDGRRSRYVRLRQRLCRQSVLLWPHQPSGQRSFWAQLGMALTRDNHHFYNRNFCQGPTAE
Experimental: as §1, §2

COc1ccc(-c2[nH]c3ccc(NC4CCC(NCCN(C)C)CC4)cc3c2C(C)C)cc1OC (stereo not shown) [Example 32, N1-(2-(3,4-dimethoxyphenyl)-3-isopropyl-1H-indol-5-yl)-N4-(2-(dimethylamino)ethyl)cyclohexane-1,4-diamine]
IC50 (human TLR7): 191 nM | IC50 (human TLR9): 610 nM

COc1ccc(-c2[nH]c3ccc(N4CCC(N5CCN(CC6CC6)CC5)CC4)cc3c2C(C)C)cc1OC [Example 87, 5-(4-(4-(cyclopropylmethyl)piperazin-1-yl)piperidin-1-yl)-2-(3,4-dimethoxyphenyl)-3-isopropyl-1H-indole]
IC50 (human TLR7): 337 nM | IC50 (human TLR9): 9800 nM

CCc1c(-c2ccc(OC)c(OC)c2)[nH]c2ccc(N3CCCN(C4CCN(C(C)C)CC4)CC3)cc12 [Example 180, 2-(3,4-dimethoxyphenyl)-3-ethyl-5-(4-(1-isopropylpiperidin-4-yl)-1,4-diazepan-1-yl)-1H-indole]
IC50 (human TLR7): 537 nM | IC50 (human TLR9): 652 nM

CNCCNC1CCC(Nc2ccc3[nH]c(-c4ccc(OC)c(OC)c4)c(C(C)C)c3c2)CC1 (single isomer, unassigned) [Example 31, N1-(2-(3,4-dimethoxyphenyl)-3-isopropyl-1H-indol-5-yl)-N4-(2-(methylamino)ethyl)cyclohexane-1,4-diamine]
IC50 (human TLR7): 1130 nM | IC50 (human TLR9): 1440 nM

CCc1c(-c2ccnc(C)c2)[nH]c2ccc(N3CCN(C4CCN(CC(C)C)CC4)CC3)cc12 [Example 152, 3-ethyl-5-(4-(1-isobutylpiperidin-4-yl)piperazin-1-yl)-2-(2-methylpyridin-4-yl)-1H-indole]
IC50 (human TLR7): 2220 nM | IC50 (human TLR9): 342 nM

CCN1CCN(C2CCC(Nc3ccc4[nH]c(-c5ccc(OC)c(OC)c5)c(C(C)C)c4c3)CC2)CC1 (stereo not shown) [Example 39, 2-(3,4-dimethoxyphenyl)-N-(4-(4-ethylpiperazin-1-yl)cyclohexyl)-3-isopropyl-1H-indol-5-amine]
IC50 (human TLR7): 242 nM | IC50 (human TLR9): 1230 nM

COc1ccc(-c2[nH]c3ccc(N4CCC(N5CCCN(C(C)=O)CC5)CC4)cc3c2C(C)C)cc1OC [Example 88, 1-(4-(1-(2-(3,4-dimethoxyphenyl)-3-isopropyl-1H-indol-5-yl)piperidin-4-yl)-1,4-diazepan-1-yl)ethan-1-one]
IC50 (human TLR7): 69 nM | IC50 (human TLR9): 4640 nM

COc1ccc(-c2[nH]c3ccc(NC4CCC(N5CCN(C6CCCC6)CC5)CC4)cc3c2C(C)C)cc1OC (stereo not shown) [Example 57, N-(4-(4-cyclopentylpiperazin-1-yl)cyclohexyl)-2-(3,4-dimethoxyphenyl)-3-isopropyl-1H-indol-5-amine]
IC50 (human TLR7): 353 nM | IC50 (human TLR9): 460 nM

CCc1c(-c2ccc(OC)c(OC)c2)[nH]c2ccc(N3CCCN(CCNC)CC3)cc12 [Example 178, 2-(4-(2-(3,4-dimethoxyphenyl)-3-ethyl-1H-indol-5-yl)-1,4-diazepan-1-yl)-N-methylethan-1-amine]
IC50 (human TLR7): 1040 nM | IC50 (human TLR9): 2300 nM

Cc1c(-c2ccnc3[nH]ccc23)[nH]c2ccc(N3CCC4(CCN(Cc5cccn5C)CC4)CC3)cc12 [Example 189, 3-((1-methyl-1H-pyrrol-2-yl)methyl)-9-(3-methyl-2-(1H-pyrrolo[2,3-b]pyridin-4-yl)-1H-indol-5-yl)-3,9-diazaspiro[5.5]undecane]
IC50 (human TLR7): 16100 nM | IC50 (human TLR9): 441 nM

COc1ccc(-c2[nH]c3ccc(NC4CCC(NCCN5CCOCC5)CC4)cc3c2C(C)C)cc1OC (stereo not shown) [Example 48, N1-(2-(3,4-dimethoxyphenyl)-3-isopropyl-1H-indol-5-yl)-N4-(2-morpholinoethyl)cyclohexane-1,4-diamine]
IC50 (human TLR7): 322 nM | IC50 (human TLR9): 1250 nM

COc1ccc(-c2[nH]c3ccc(N4CCC(NCCN(C)C)CC4)cc3c2C(C)C)cc1OC [Example 75, N1-(1-(2-(3,4-dimethoxyphenyl)-3-isopropyl-1H-indol-5-yl)piperidin-4-yl)-N2,N2-dimethylethane-1,2-diamine]
IC50 (human TLR7): 206 nM | IC50 (human TLR9): 3860 nM

COc1ccc(-c2[nH]c3ccc(N4CCC(N5CCN(CCN6CCCC6)CC5)CC4)cc3c2C(C)C)cc1OC [Example 100, 2-(3,4-dimethoxyphenyl)-3-isopropyl-5-(4-(4-(2-(pyrrolidin-1-yl)ethyl)piperazin-1-yl)piperidin-1-yl)-1H-indole]
IC50 (human TLR7): 102 nM | IC50 (human TLR9): 1010 nM

COc1ccc(-c2[nH]c3ccc(NC4CCC(NCCCN(C)C)CC4)cc3c2C(C)C)cc1OC (stereo not shown) [Example 36, N1-(2-(3,4-dimethoxyphenyl)-3-isopropyl-1H-indol-5-yl)-N4-(3-(dimethylamino)propyl) cyclohexane-1,4-diamine]
IC50 (human TLR7): 225 nM | IC50 (human TLR9): 583 nM

CCN1CCN(C2CCC(Nc3ccc4[nH]c(-c5ccc(OC)c(OC)c5)c(C(C)C)c4c3)CC2)CC1 (stereo not shown) [Example 38, 2-(3,4-dimethoxyphenyl)-N-(4-(4-ethylpiperazin-1-yl)cyclohexyl)-3-isopropyl-1H-indol-5-amine]
IC50 (human TLR7): 450 nM | IC50 (human TLR9): 716 nM

COc1ccc(-c2[nH]c3ccc(NC4CCC(NCCCN(C)C)CC4)cc3c2C(C)C)cc1OC (stereo not shown) [Example 37, N1-(2-(3,4-dimethoxyphenyl)-3-isopropyl-1H-indol-5-yl)-N4-(3-(dimethylamino)propyl) cyclohexane-1,4-diamine]
IC50 (human TLR7): 171 nM | IC50 (human TLR9): 1430 nM

CCc1c(-c2ccnc(OC)c2)[nH]c2ccc(N3CCN(CCNC)CC3)cc12 [Example 137, 2-(4-(3-ethyl-2-(2-methoxypyridin-4-yl)-1H-indol-5-yl)piperazin-1-yl)-N-methylethan-1-amine]
IC50 (human TLR7): 70 nM | IC50 (human TLR9): 2960 nM
